According to ChEMBL document CHEMBL1144408, “Novel atypical antipsychotic agents: rational design, an efficient palladium-catalyzed route, and pharmacological studies” (J Med Chem, 2005):
Values joined by “and” are separate entries in the source; they are usually repeats but may differ in a detail not shown here. Equal entries are not always repeated.

What was measured:
D(1A) dopamine receptor = D(1A) dopamine receptor (Rattus norvegicus, UniProt P18901)
Description: Inhibition of [3H]-SCH- 23390 binding to rat dopamine D1 receptor

D(3) dopamine receptor = D(3) dopamine receptor (Homo sapiens, UniProt P35462); experiment: biochemical
Description: Inhibition of [3H]7-OH-DPAT binding to Dopamine D3 receptor expressed in Sf9 cells

[1] = target: T1, 5-hydroxytryptamine receptor 2C (Rattus norvegicus, UniProt P08909); experiment: Inhibition of [3H]mesulergine binding to rat 5-hydroxytryptamine 2C receptor
T1 sequence (P08909 whole entry): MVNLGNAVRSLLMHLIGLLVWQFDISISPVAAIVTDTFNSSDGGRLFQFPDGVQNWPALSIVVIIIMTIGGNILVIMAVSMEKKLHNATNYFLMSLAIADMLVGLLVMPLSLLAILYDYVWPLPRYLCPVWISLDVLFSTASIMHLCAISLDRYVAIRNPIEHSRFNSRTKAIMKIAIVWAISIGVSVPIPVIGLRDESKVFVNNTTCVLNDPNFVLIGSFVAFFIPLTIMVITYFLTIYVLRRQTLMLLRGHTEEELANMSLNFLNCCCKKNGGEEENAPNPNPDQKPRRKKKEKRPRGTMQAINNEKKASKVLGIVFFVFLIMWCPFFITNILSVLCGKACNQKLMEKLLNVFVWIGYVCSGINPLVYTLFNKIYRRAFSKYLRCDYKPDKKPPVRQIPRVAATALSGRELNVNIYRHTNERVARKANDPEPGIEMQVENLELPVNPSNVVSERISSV

Rattus norvegicus [2] = experiment: In vivo effective dose against 5-MeO-DMT-induced head twitches in rats was determined; type: functional
Rattus norvegicus [3] = species: Rattus norvegicus; experiment: animal or person
Description: In vivo effective dose against conditioned avoidance response was determined in rats

Rattus norvegicus [4] = experiment: In vivo effective dose was determined against apomorphine climbing in rats; type: functional
Rattus norvegicus [5] = experiment: In vivo effective dose against catalepsy response was determined in rats; type: functional
Rattus norvegicus [6] = experiment: In vivo effective dose of compound against 5-MeO-DMT induced head twitches in rats; type: functional
Rattus norvegicus [7] = species: Rattus norvegicus; experiment: animal or person; remark: listed apart in the source
Description: In vivo effective dose against spontaneous locomotor activity was determined in rats

Chain of D(3) dopamine receptor (P35462 whole entry): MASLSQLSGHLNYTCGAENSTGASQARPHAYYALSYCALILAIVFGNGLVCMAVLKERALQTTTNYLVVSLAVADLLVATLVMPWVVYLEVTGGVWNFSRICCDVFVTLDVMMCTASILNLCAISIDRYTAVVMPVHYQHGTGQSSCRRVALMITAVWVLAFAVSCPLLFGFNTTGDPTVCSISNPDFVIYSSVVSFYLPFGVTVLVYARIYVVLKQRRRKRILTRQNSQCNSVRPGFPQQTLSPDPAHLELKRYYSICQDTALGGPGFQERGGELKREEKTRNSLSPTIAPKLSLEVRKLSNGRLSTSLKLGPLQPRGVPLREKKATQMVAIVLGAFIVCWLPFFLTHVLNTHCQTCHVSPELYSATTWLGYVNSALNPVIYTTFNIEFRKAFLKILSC
Chain of D(1A) dopamine receptor (P18901 whole entry): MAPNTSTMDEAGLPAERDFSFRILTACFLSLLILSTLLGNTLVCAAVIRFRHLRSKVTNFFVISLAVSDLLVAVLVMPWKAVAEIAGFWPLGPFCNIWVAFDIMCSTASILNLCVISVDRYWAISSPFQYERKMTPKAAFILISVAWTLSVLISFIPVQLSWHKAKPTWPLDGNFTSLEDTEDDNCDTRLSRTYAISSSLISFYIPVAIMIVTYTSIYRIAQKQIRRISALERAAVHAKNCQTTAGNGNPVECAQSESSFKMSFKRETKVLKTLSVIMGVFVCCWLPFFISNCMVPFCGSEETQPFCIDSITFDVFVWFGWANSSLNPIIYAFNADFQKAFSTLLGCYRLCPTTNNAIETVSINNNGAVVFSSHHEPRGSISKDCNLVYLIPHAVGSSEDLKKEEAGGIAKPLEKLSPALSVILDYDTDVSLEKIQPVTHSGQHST

| Compound | Ki (D(1A) dopamine receptor) [nM] | Ki (D(3) dopamine receptor) [nM] | Ki [1] [nM] | ED50 (Rattus norvegicus [2]) [µmol/kg] | ED50 (Rattus norvegicus [3]) | ED50 (Rattus norvegicus [4]) | ED50 (Rattus norvegicus [5]) | ED50 (Rattus norvegicus [6]) [mg/kg] | ED50 (Rattus norvegicus [7]) |
| --- | --- | --- | --- | --- | --- | --- | --- | --- | --- |
| Cc1ccc2n1Cc1ccccc1C=C2N1CCN(C)CC1 | 230 | 88.6 | 15 |  |  |  |  |  |  |
| CN1CCN(C2=Cc3ccccc3Cn3cccc32)CC1 |  | 224 |  | 0.43 | 0.56 mg/kg and 2 µmol/kg | 0.5 µmol/kg and 0.14 mg/kg | > 100 mg/kg and > 357 µmol/kg | 0.12 | 1.6 mg/kg and 5.73 µmol/kg |
| CN1CCN(C2=Nc3cc(Cl)ccc3Nc3ccccc32)CC1 [CLOZAPINE] |  |  |  | 16.4 |  | 5.72 mg/kg and 17.5 µmol/kg | > 100 mg/kg and > 306 µmol/kg | 5.35 |  |
| CN1CCN(C2=Cn3cccc3Sc3ccccc32)CC1 |  |  |  | 6.69 |  | 1.64 mg/kg and 5.51 µmol/kg | > 100 mg/kg and > 336 µmol/kg | 1.99 | 0.51 mg/kg |
| CN1CCN(C2=Cc3cc(Cl)ccc3Cn3cccc32)CC1 | 47.4 | 24.2 | 3.8 |  |  |  |  |  |  |
| CN1CCN(C2=Cn3cccc3Sc3sccc32)CC1 | 4.91 | 25 |  |  |  |  |  |  |  |
